Earlier results in US10421710B2, “Substituted phenethylamines with serotoninergic and/or norepinephrinergic activity” (Auspex Pharmaceuticals, Inc., priority 2007, dated 2019).
“And” between values parts separate entries of the source, which are not always exact repeats. Equal entries are not always repeated.

Settings: in humans (b8); species not repeated

COc1ccc(C(CN(C)C)C2(O)CCCCC2)cc1 (racemic) [venlafaxine, 1-[2-dimethylamino-1-(4-methoxy-phenyl)-ethyl]-cyclohexanol]
half-life (T1/2): ~5 h and 3 to 7 h

CN(C)CC(c1ccc(O)cc1)C1(O)CCCCC1 (centres unmarked) [ODV, 0-desmethylvenlafaxine]
half-life (T1/2): ~11 h and 11 h
